Patent US11357752B2, “Carolacton and derivatives thereof for use in the treatment of cell proliferation disorders” (Helmholtz-Zentrum für Infektionsforschung GmbH, priority 2017, dated 2022)
Several values for one entry are separate records, joined by “and”; a condition that tells them apart may be missing. Equal values may be shown once. Entries after “also recorded” stand apart in the source; their conditions may differ.

Assays:
[1] = biological target: T1, ecFoID (Escherichia coli, UniProt P24186); assay: FoID dehydrogenase (DH) enzyme assay; type: biochemical, E. coli; settings: for Ki: carolacton inhibition on DH activity, ecFoID
T1 construct: His-tag (vector pHis-TEV); made in house; host or cells: E. coli BL21 (DE3)
Description: (6R,S)-5,10-Methylene-5,6,7,8-tetrahydrofolic acid ((6R,S)-5,10-CH2-THF), calcium salt and (6R,S)-5,10-Methenyl-5,6,7,8-tetrahydrofolic acid ((6R,S)-5,10-CH=THF) chloride were purchased from Schircks Laboratories (Bauma, Switzerland) and were used as substrates for FoID dehydrogenase and cyclohydrolase enzyme assays, respectively. Only the R-isomer, which accounts for 50% of (6R,S)-5,10-CH2-THF and (6R,S)-5,10-CH=THF, respectively, is used by the enzyme. (6R,S)-5,10-CH2-THF was dissolved in N2-spargeled basic buffer (50 mM Tris-HCl (pH 8.0), 100 mM β-mercaptoethanol) as described by Sah and Varshney, 2015a (6R,S)-5,10-CH=THF was first dissolved in DMSO as a 100 mM stock solution.
Because FoID is a bifunctional enzyme, dehydrogenase and cyclohydrolase activities were determined for FoID enzyme kinetics, respectively. The dehydrogenase activity of FoID was assayed for its substrate 5,10-CH2-THF and cofactor NADP+ (in the case of MTHFD2, NAD+ was used as cofactor) based on monitoring the formation of 5,10-CH=THF while the cyclohydrolase activity of FoID was determined for its substrate 5,10-CH=THF by monitoring the hydrolysis of 5,10-CH2-THF. The enzyme kinetics for the dehydrogenase activity of all FoIDs except hsMTHFD1_DC were determined at 30° C. in 50 mM Tris-HCl (pH 7.5), 30 mM β-mercaptoethanol. The hsMTHFD1_DC dehydrogenase activity was measured in 25 mM MOPS (pH 7.3), 30 mM β-mercaptoethanol at 30° C. To measure the enzyme kinetics constants for 5,10-CH2-THF, for example in the case of ecFoID, the NADP concentration was fixed at 1 mM and the concentration of 5,10-CH2-THF varied from 5 μM to 1,500 μM (R-isomer). Similarly, to measure the kinetic constants of ecFoID for NADP+, the concentration of 5,10-CH2-THF (R-isomer) was fixed at 1 mM and the concentration of NADP+ varied from 10 μM to 1,500 μM. For different FoIDs, the varied concentration range of substrates could be different. The 50 μL reactions of dehydrogenase assays were initiated by adding appropriate amounts enzyme (4 nM ecFoID, 4 nM spFoID, 15 nM hsMTHFD1_DC, 20 nM hsMTHFD2, 20 nM G8S, 20 nM Q98H, 10 nM K54N, 200 nM ΔK54R55 in the corresponding assays) and terminated with 50 μL 1 M HCl after 2 min incubation at 30° C. To monitor the formation of 5,10-CH=THF, the absorbance of the reaction mixture was monitored at 350 nm in micro UV cuvettes (BRAND, Essex, Connecticut, USA). The concentration of 5,10-CH=THF produced in the reaction was determined using an extinction co-efficient of 0.0249 μM-1 cm-1. Cyclohydrolase activity for each FoID was assayed in the same buffer as dehydrogenase activity at 30° C. but for 30 s. The concentration of FoID used in each assay was 5 nM of ecFoID, spFoID and hsMTHFD1_DC, respectively, and 2 nM of hsMTHFD2. The consumption of 5,10-CH=THF was measured by recording the absorbance of the reactions at 355 nm using the TECAN Infinite 200 PRO equipped with a monochromator. To measure the enzyme kinetic constants, different concentrations of 5,10-CH=THF (varied from […]) were used in […] reaction mixtures. The inhibition constants (Ki) of carolacton on FoID were determined by measuring the apparent Km values when adding certain amounts of carolacton to the enzyme reactions. For ecFoID, 10 nM carolacton was added in the dehydrogenase assay and 50 nM carolacton was used in the cyclohydrolase assay. For spFoID, 25 nM carolacton was added in both dehydrogenase assay and cyclohydrolase assay. For hsMTHFD1_DC, 30 nM carolacton was added in the dehydrogenase assay and 10 nM in the cyclohydrolase assay. […] To compare the inhibition effects of carolacton between the different FoIDs, the half maximal inhibitory concentration (IC50) of carolacton on the same amount of enzyme was determined for FoIDs involved in this study. The enzyme concentration used to determine dehydrogenase activity IC50 was 10 nM, and the enzyme used for cyclohydrolase IC50 measurements was 5 nM. All enzyme kinetics measurements were performed as independent triplicates. […]

[2] = biological target: T2, spFoID (Streptococcus pneumoniae serotype 4, UniProt Q97RI9); assay: Surface plasmon resonance assay; type: binding, S. pneumoniae; settings: read-out: KD (SPR)
T2 construct: made in house; host or cells: E. coli BL21 (DE3)
Description: All surface plasmon resonance (SPR) experiments described in this study were performed on a Biacore X100 system. Different FoIDs with or without His-tag were coupled on CM5 sensor chips (GE Healthcare) by the amine coupling method using a kit from GE Healthcare Life Sciences (Freiburg, Germany). A pH scouting process was performed before protein immobilization to test the most appropriate buffer and the protein concentration for protein coupling. Finally, 20 μg/mL of ecFoID in 10 mM maleate buffer (pH 6.8), 30 μg/mL of ecFoID Q98H in 10 mM maleate buffer (pH 6.3), 40 μg/mL of ecFoID K54N in 10 mM maleate buffer (pH 5.8), 20 μg/mL of spFoID in 10 mM maleate buffer (pH 6.0) and 15 μg/mL of MTHFD2 (His-tag cleaved) in 10 mM maleate buffer (pH 6.8) were used for coupling. In the protein immobilization procedure, the contact time was calculated based on the pH scouting results to achieve -3000-5000 relative resonance units (RU). The buffer used in the SPR assays was 1×HBS-P buffer (10 mM HEPES pH 7.4, 150 mM NaCl, 0.05% Tween 20). The 1 mM stock solution of carolacton was prepared in 1×HBS-P buffer and diluted to different concentration ranges by two-fold serial dilution. In the SPR assay, the association time was 180 s and the dissociation time was 600 s. Data analysis was performed using the Biacore evaluation software. […]

[3] = biological target: T1, ecFoID; assay: Surface plasmon resonance assay; type: binding, E. coli
Description: (§1) All surface plasmon resonance (SPR) experiments described in this study were performed on a Biacore X100 system. Different FoIDs with or without His-tag were coupled on CM5 sensor chips (GE Healthcare) by the amine coupling method using a kit from GE Healthcare Life Sciences (Freiburg, Germany). A pH scouting process was performed before protein immobilization to test the most appropriate buffer and the protein concentration for protein coupling. Finally, 20 μg/mL of ecFoID in 10 mM maleate buffer (pH 6.8), 30 μg/mL of ecFoID Q98H in 10 mM maleate buffer (pH 6.3), 40 μg/mL of ecFoID K54N in 10 mM maleate buffer (pH 5.8), 20 μg/mL of spFoID in 10 mM maleate buffer (pH 6.0) and 15 μg/mL of MTHFD2 (His-tag cleaved) in 10 mM maleate buffer (pH 6.8) were used for coupling. In the protein immobilization procedure, the contact time was calculated based on the pH scouting results to achieve -3000-5000 relative resonance units (RU). The buffer used in the SPR assays was 1×HBS-P buffer (10 mM HEPES pH 7.4, 150 mM NaCl, 0.05% Tween 20). The 1 mM stock solution of carolacton was prepared in 1×HBS-P buffer and diluted to different concentration ranges by two-fold serial dilution. In the SPR assay, the association time was 180 s and the dissociation time was 600 s. Data analysis was performed using the Biacore evaluation software. The SPR curves were exported to be re-plotted in OriginPro 2016 (OriginLab, Northampton, Mass., US).

[4] = biological target: T3, ecFoID K54N (Escherichia coli, UniProt P24186, K54N); assay: Surface plasmon resonance assay; type: binding, E. coli
T3 construct: made in house; host or cells: E. coli BL21 (DE3)
Description: as §1

[5] = biological target: T4, ecFoID Q98H (Escherichia coli, UniProt P24186, Q98H); assay: Surface plasmon resonance assay; type: binding, E. coli
T4 construct: made in house; host or cells: E. coli BL21 (DE3)
Description: as §1

T2 sequence (Q97RI9 whole entry): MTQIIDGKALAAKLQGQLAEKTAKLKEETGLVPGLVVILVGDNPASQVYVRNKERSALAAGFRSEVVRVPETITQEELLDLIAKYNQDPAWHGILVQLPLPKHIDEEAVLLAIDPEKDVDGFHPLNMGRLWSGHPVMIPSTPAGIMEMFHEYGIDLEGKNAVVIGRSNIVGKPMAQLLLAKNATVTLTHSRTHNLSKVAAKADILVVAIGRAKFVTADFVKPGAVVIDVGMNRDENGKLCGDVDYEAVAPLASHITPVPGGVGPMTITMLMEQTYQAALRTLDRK

`CO[C@H](CC(=O)O)[C@@H](C)C(=O)[C@H](C)/C=C(\C)[C@H]1OC(=O)[C@H](O)[C@H](O)/C=C/[C@H](C)CCC[C@@H]1C` [Carolacton, carolacton] was tested, and the IC50 [1] was 15.5 nM, the Ki ([1]; Ki (5,10-CH2—THF), vs 5,10-CH2-THF) was 21 nM and 21.3 nM and the Ki ([1]; Ki (NADP^+), vs cofactor NADP+) was 11 nM and 10.9 nM. For the same compound, the Kd [2] was 27 nM, the Kd [3] was 10 nM and the “binding (SPR), in words” value [4] was “no binding; also recorded: does not bind”. The Kd [5] was 20000 nM and the “binding (SPR), in words” value ([5]; ecFoID Q98H) was “weak binding”.
